Test results taken from patent publication US20120245123A1, “METHODS FOR IMPROVING BONE HEALTH IN INFANTS USING PREBIOTICS” (ABBOTT LABORATORIES, priority 2011, published 2012).

Experiments:
[1] = system: skeleton of rat offspring (whole body, femur, tibia, lumbar vertebra); assay: pDEXA densitometry of BMD and BMC in rat offspring after maternal diet supplementation; format: in vivo, Sprague-Dawley rats; settings: for lumbar vertebra BMC with respect to Control group / lumbar vertebra BMD with respect to Control group: adolescent offspring (90-day-old)
Experimental: Fifty 10-week-old pregnant Sprague-Dawley rats at the eleventh day of gestation (Charles Rivers Laboratories, Orleans Cedex, France) are housed under standardized environmental conditions (22° C., relative humidity of 50%, artificial lighting on for 12 hours/day) and are given free access to deionized water during the test period. The rats are randomly divided into five groups of feeding (n=10/group): (1) Control Group (“Control”), who receives a standard purified rodent diet (SPRD); […] (3) Prebiotic group (“Prebiotic”), who receives the SPRD containing 7.5% of the total carbohydrate as inulin-type fructans (Synergy-1®, Orafti, Belgium); […] During their suckling period, the pups receive only the dam's milk. […] Sacrifices of rat pups are carried out at birth, weaning and at the end of the adolescence period. The whole bone mineral density (BMD) and bone mineral content (BMC) of the skeleton are measured at birth and at weaning by using a pDEXA densitometer (Norland Corp., Fort Atkinson, Wis., USA). In adolescent offspring, the determination of BMC and BMD are analyzed in isolated bones (femur, tibia and vertebrae). Determination of the trabecular architecture parameters (trabecular thickness, separation and number), bone length and bone volume fraction (BV/TV) is analyzed by Micro-computed tomography (micro-CT). Micro-CT analysis is carried out by the Bone & Joint Research Group (University of Southampton, UK) and cortical parameters are performed by SCANCO Medical AG (Bruttisellen, Switzerland). DEXA scan is a technique used in the clinical practice for the analysis of bone health. Two main bone properties can be measured by this technique: Bone Mineral Content (BMC) and areal Bone Mineral Density (BMD). BMC determines the mass of mineral present in the whole body or in the selected skeletal region. BMC changes reflect the result of the metabolic “mass” balance between bone formation and bone destruction. BMC represented relative to the projected bone area refers to BMD. BMD represents the […] present in the bone region studied. […] The manufacturer's software for research in small animals calculates BMC and BMD for the isolated bone. Femur is measured from the femoral neck to the knee joint. Tibia is measured from the knee joint to the joint between tibia and calcaneus, also including fibula. […] Results are expressed as mean±SEM, and the probability level at which the differences are considered significant is set at p<0.05. One-way ANOVA is used to evaluate differences attributable to the diet in the different markers, previously testing the homogeneity of variances by Levene's. A posteriori post hoc tests are carried out by the Dunnet test.

[2] = system: femur, tibia and lumbar vertebra of rat offspring; assay: Micro-CT of trabecular and cortical bone architecture in rat offspring after maternal diet supplementation; format: in vivo, Sprague-Dawley rats
Experimental: Fifty 10-week-old pregnant Sprague-Dawley rats at the eleventh day of gestation (Charles Rivers Laboratories, Orleans Cedex, France) are housed under standardized environmental conditions (22° C., relative humidity of 50%, artificial lighting on for 12 hours/day) and are given free access to deionized water during the test period. The rats are randomly divided into five groups of feeding (n=10/group): (1) Control Group (“Control”), who receives a standard purified rodent diet (SPRD); […] (3) Prebiotic group (“Prebiotic”), who receives the SPRD containing 7.5% of the total carbohydrate as inulin-type fructans (Synergy-1®, Orafti, Belgium); […] During their suckling period, the pups receive only the dam's milk. […] Sacrifices of rat pups are carried out at birth, weaning and at the end of the adolescence period. The whole bone mineral density (BMD) and bone mineral content (BMC) of the skeleton are measured at birth and at weaning by using a pDEXA densitometer (Norland Corp., Fort Atkinson, Wis., USA). In adolescent offspring, the determination of BMC and BMD are analyzed in isolated bones (femur, tibia and vertebrae). Determination of the trabecular architecture parameters (trabecular thickness, separation and number), bone length and bone volume fraction (BV/TV) is analyzed by Micro-computed tomography (micro-CT). Micro-CT analysis is carried out by the Bone & Joint Research Group (University of Southampton, UK) and cortical parameters are performed by SCANCO Medical AG (Bruttisellen, Switzerland). Micro-computed tomography (micro-CT) is a technique for the nondestructive assessment and analysis of the three-dimensional trabecular and cortical bone structural properties. Scanning with micro-CT can be achieved at resolutions as low as 5 μm, allowing for the determination of porosities and subtle modeling and remodeling events of the bone tissue. Furthermore, true three-dimensional image reconstructions permit the assessment of bone microarchitecture as a three dimensional structure, providing critical information to images collected through histomorphometry. In the present Example, femoral, tibia and vertebra cancellous bones are assessed using Metris (XTek) Benchtop 160Xi CT scanner (University of Southampton) and vertebra cortical bone is assessed using MicroCT-40 computed tomography system (Scanco Medical, Basserdorf, Switzerland). […] Micro-CT analysis also allows for the determination of various quality properties of the cortical bone. The bone fragility is influenced not only by the architecture but also by the tissue “quality”. The strength of a bone as an organ depends on the material properties of bone as a tissue. Stiffness, or the resistance of the whole bone to deformation by a load, is a key material property and requires a destructive mechanical technique if measurements are done in vivo. The non-destructive analysis of the volumetric bone mineral density of cortical bone (cortical vBMD) by micro CT has an approximately linear relationship with the stiffness of the cortical bone. Cortical thickness (C.Th) is one of the variables that helps to evaluate the modeling-derived changes provoked by growth. The cortical porosity (C.Sp) reflects the intracortical remodeling in the bone. Remodeling, that occurs in the surfaces of bone, could be enhanced if the pore size becomes larger and, therefore, with the increase of the cortical porosity. An increment on cortical porosity weakens the bone and decreases the bone strength. Results are expressed as mean±SEM, and the probability level at which the differences are considered significant is set at p<0.05. One-way ANOVA is used to evaluate differences attributable to the diet in the different markers, previously testing the homogeneity of variances by Levene's. A posteriori post hoc tests are carried out by the Dunnet test.

[3] = adolescent offspring (90-day-old)

Row | Compound | lumbar vertebra BMC with respect to Control group [1] | lumbar vertebra BMD with respect to Control group [1] | vertebra BV/TV enhanced in comparison with Control group [2, 3] [%] | vertebra cortical porosity, effect [2, 3] | vertebra cortical vBMD, effect [2, 3] | vertebra trabecular separation respective to Control group [2, 3] | vertebra trabecular thickness enhanced in comparison with Control group [2, 3] [%] | vertebrae cortical thickness, effect [2, 3] | trabecular number of femur and tibia respective to Control group ([2]; pups at delivery) | trabecular separation of femur and tibia respective to Control group ([2]; pups at delivery) | trabecular thickness of femur and tibia respective to Control group ([2]; pups at delivery) | increase in vertebra trabecular thickness respective to Control group ([2]; pups at weaning) [%] | vertebra BV/TV ratio respective to Control group ([2]; pups at weaning) | vertebra trabecular separation respective to Control group ([2]; pups at weaning) | whole body BMC relative to Control group ([1]; pups at weaning) | cortical features of the vertebra [2, 3] | vertebra BV/TV, effect versus Control group [2, 3] | vertebra trabecular thickness, effect versus Control group [2, 3]
1 | O=C([O-])[O-].[Ca+2] [Calcium, calcium carbonate] | no differences | no differences | 22 | decrease | increase | significant decrease | 17 | without significantly affecting | greater | decrease in the trabecular separation, although statistical differences are not achieved | lower | ~30 | statistically different | statistically different | – | – | – | –
2 | Vitamin D | no differences | no differences | – | – | – | – | – | – | – | – | – | – | – | – | lower | does not show any improvement | No effect | No effect
